Laboratory results: patent US20240218022A1, “ANTI-VISTA MACROCYCLIC PEPTIDES AND COMPOSITIONS” (BRISTOL-MYERS SQUIBB COMPANY, priority 2022, published 2024)
pIC50: −log10 of the molar value. Starred links: 1 amine or outer side, 2 acyl side, 3 side chain; linkers in the order of their positions; H or OH if unused. Positions of bridges follow the written chain, without caps; N, C: chain ends. Non-standard residues stand in square brackets, D forms with d. Residues, ends and D or L forms follow the SMILES beside them. ξ: configuration not given here. Morpholine(3S-CO) = O=C(O)[C@@H]1COCCN1; Phe(3-Me) = Cc1cccc(C[C@H](N)C(=O)O)c1; βAsp = O=C(O)[C@H](CC(=O)[*:2])N[*:1]; Ile(3ξ) = CCC(C)[C@H](N)C(=O)O; NMeL = CN[C@@H](CC(C)C)C(=O)O; Ahp(2) = CCCCC[C@H](N)C(=O)O; NMeNle = CCCC[C@H](NC)C(=O)O; Tle = CC(C)(C)[C@H](N)C(=O)O; Pip = O=C(O)[C@@H]1CCCCN1; NHexGly = CCCCCCNCC(=O)O; Nle = CCCC[C@H](N)C(=O)O; Aun = NCCCCCCCCCCC(=O)O; Aze = O=C(O)[C@@H]1CCN1; AEEA = NCCOCCOCC(=O)O

Molecular target: T1, mouse VISTA (mVISTA) (Mus musculus, UniProt Q9D659)
T1 construct: expressed in transfected cells; host or cells: Human embryonic kidney 293T cells
T1 sequence (Q9D659 33-308): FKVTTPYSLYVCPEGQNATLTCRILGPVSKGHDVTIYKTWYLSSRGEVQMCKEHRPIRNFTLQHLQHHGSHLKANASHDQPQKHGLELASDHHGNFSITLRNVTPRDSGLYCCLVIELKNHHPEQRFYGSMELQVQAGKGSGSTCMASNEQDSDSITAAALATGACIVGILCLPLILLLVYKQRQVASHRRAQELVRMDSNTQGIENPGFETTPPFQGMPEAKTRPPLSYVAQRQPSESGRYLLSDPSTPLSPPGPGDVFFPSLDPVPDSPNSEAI
Experiment: Cell-Based Binding High-Content Assay For mVISTA (HC CBA mVISTA)
Conditions: read-out: HC CBA mVISTA IC50
Method in brief: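 mVISTA-293T, 4,000 cells/well; cpd ± washout step; biotin-peptide 2 nM final, 30 min RT; SA-Alexa 647 30 min; formaldehyde/Hoechst fix; HCS imaging; 4PL IC50.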

Structure (SMILES)	pIC50
CCCCCCN1CC(=O)N[C@@H](Cc2ccc(O)cc2)C(=O)N[C@@H](CCCC)C(=O)N[C@@H](CC(N)=O)C(=O)N[C@@H](CCCNC(=N)N)C(=O)N(C)[C@@H](CCCC)C(=O)N[C@@H](CCCCC)C(=O)N(C)[C@@H](CC(C)C)C(=O)N[C@@H](C(C)(C)C)C(=O)N[C@@H](CO)C(=O)N[C@H](C(=O)N[C@@H](CC(=O)NCCOCCOCC(=O)NCCCCCCCCCCC(=O)O)C(=O)O)CSCC(=O)N[C@@H](Cc2ccccc2)C(=O)N[C@@H](Cc2c[nH]c3ccccc23)C(=O)N[C@@H](CC(=O)O)C1=O [Example 2179] ({CH2CO}-FWD[NHexGly]Y[Nle]NR[NMeNle][Ahp(2)][NMeL][Tle]SC[βAsp][AEEA][Aun]-OH; thioether N-14)	7.52
CCCCCCN1CC(=O)N[C@@H](Cc2ccc(O)cc2)C(=O)N[C@@H](CCCC)C(=O)N[C@@H](CC(N)=O)C(=O)N[C@@H](CCCNC(=N)N)C(=O)N(C)[C@@H](CCCC)C(=O)N[C@@H](CCCCC)C(=O)N(C)[C@@H](CC(C)C)C(=O)N[C@@H](C(C)C)C(=O)N[C@@H](CO)C(=O)N[C@H](C(=O)N[C@@H](CC(=O)NCCOCCOCC(=O)NCCCCCCCCCCC(=O)O)C(=O)O)CSCC(=O)N[C@@H](Cc2ccccc2)C(=O)N[C@@H](Cc2c[nH]c3ccccc23)C(=O)N[C@@H](CC(=O)O)C1=O [Example 2180] ({CH2CO}-FWD[NHexGly]Y[Nle]NR[NMeNle][Ahp(2)][NMeL]VSC[βAsp][AEEA][Aun]-OH; thioether N-14)	7.73
CCCCCCN1CC(=O)N[C@@H](Cc2ccc(O)cc2)C(=O)N[C@@H](CCCC)C(=O)N[C@@H](CC(N)=O)C(=O)N[C@@H](CCCNC(=N)N)C(=O)N(C)[C@@H](CCCC)C(=O)N[C@@H](CCCCC)C(=O)N2CCCC[C@H]2C(=O)N[C@@H](C(C)CC)C(=O)N[C@@H](CO)C(=O)N[C@H](C(=O)N[C@@H](CC(=O)NCCOCCOCC(=O)NCCCCCCCCCCC(=O)O)C(=O)O)CSCC(=O)N[C@@H](Cc2ccccc2)C(=O)N[C@@H](Cc2c[nH]c3ccccc23)C(=O)N[C@@H](CC(=O)O)C1=O (stereo partly shown) [Example 2182] ({CH2CO}-FWD[NHexGly]Y[Nle]NR[NMeNle][Ahp(2)][Pip][Ile(3ξ)]SC[βAsp][AEEA][Aun]-OH; thioether N-14)	7.51
CCCCCCN1CC(=O)N[C@@H](Cc2ccc(O)cc2)C(=O)N[C@@H](CCCC)C(=O)N[C@@H](CC(N)=O)C(=O)N[C@@H](CCCNC(=N)N)C(=O)N(C)[C@@H](CCCC)C(=O)N[C@@H](CCCCC)C(=O)N2CC[C@H]2C(=O)N[C@@H](C(C)CC)C(=O)N[C@@H](CO)C(=O)N[C@H](C(=O)N[C@@H](CC(=O)NCCOCCOCC(=O)NCCCCCCCCCCC(=O)O)C(=O)O)CSCC(=O)N[C@@H](Cc2ccccc2)C(=O)N[C@@H](Cc2c[nH]c3ccccc23)C(=O)N[C@@H](CC(=O)O)C1=O (stereo partly shown) [Example 2183] ({CH2CO}-FWD[NHexGly]Y[Nle]NR[NMeNle][Ahp(2)][Aze][Ile(3ξ)]SC[βAsp][AEEA][Aun]-OH; thioether N-14)	7.77
CCCCCCN1CC(=O)N[C@@H](Cc2ccc(O)cc2)C(=O)N[C@@H](CCCC)C(=O)N[C@@H](CC(N)=O)C(=O)N[C@@H](CCCNC(=N)N)C(=O)N(C)[C@@H](CCCC)C(=O)N[C@@H](CCCCC)C(=O)N2CC[C@H]2C(=O)N[C@@H](C(C)C)C(=O)N[C@@H](CO)C(=O)N[C@H](C(=O)N[C@@H](CC(=O)NCCOCCOCC(=O)NCCCCCCCCCCC(=O)O)C(=O)O)CSCC(=O)N[C@@H](Cc2ccccc2)C(=O)N[C@@H](Cc2c[nH]c3ccccc23)C(=O)N[C@@H](CC(=O)O)C1=O [Example 2184] ({CH2CO}-FWD[NHexGly]Y[Nle]NR[NMeNle][Ahp(2)][Aze]VSC[βAsp][AEEA][Aun]-OH; thioether N-14)	7.64
CCCCCCN1CC(=O)N[C@@H](Cc2ccc(O)cc2)C(=O)N[C@@H](CCCC)C(=O)N[C@@H](CC(N)=O)C(=O)N[C@@H](CCCNC(=N)N)C(=O)N(C)[C@@H](CCCC)C(=O)N[C@@H](CCCCC)C(=O)N2CCCC[C@H]2C(=O)N[C@@H](Cc2ccccc2)C(=O)N[C@@H](CO)C(=O)N[C@H](C(=O)N[C@@H](CC(=O)NCCOCCOCC(=O)NCCCCCCCCCCC(=O)O)C(=O)O)CSCC(=O)N[C@@H](Cc2ccccc2)C(=O)N[C@@H](Cc2c[nH]c3ccccc23)C(=O)N[C@@H](CC(=O)O)C1=O [Example 2185] ({CH2CO}-FWD[NHexGly]Y[Nle]NR[NMeNle][Ahp(2)][Pip]FSC[βAsp][AEEA][Aun]-OH; thioether N-14)	7.30
CCCCCCN1CC(=O)N[C@@H](Cc2ccc(O)cc2)C(=O)N[C@@H](CCCC)C(=O)N[C@@H](CC(N)=O)C(=O)N[C@@H](CCCNC(=N)N)C(=O)N(C)[C@@H](CCCC)C(=O)N[C@@H](CCCCC)C(=O)N2CCCC[C@H]2C(=O)N[C@@H](C(C)C)C(=O)N[C@@H](CO)C(=O)N[C@H](C(=O)N[C@@H](CC(=O)NCCOCCOCC(=O)NCCCCCCCCCCC(=O)O)C(=O)O)CSCC(=O)N[C@@H](Cc2ccccc2)C(=O)N[C@@H](Cc2c[nH]c3ccccc23)C(=O)N[C@@H](CC(=O)O)C1=O [Example 2186] ({CH2CO}-FWD[NHexGly]Y[Nle]NR[NMeNle][Ahp(2)][Pip]VSC[βAsp][AEEA][Aun]-OH; thioether N-14)	7.61
CCCCCCN1CC(=O)N[C@@H](Cc2ccc(O)cc2)C(=O)N[C@@H](CCCC)C(=O)N[C@@H](CC(N)=O)C(=O)N[C@@H](CCCNC(=N)N)C(=O)N(C)[C@@H](CCCC)C(=O)N[C@@H](CCCCC)C(=O)N2CC[C@H]2C(=O)N[C@@H](C(C)(C)C)C(=O)N[C@@H](CO)C(=O)N[C@H](C(=O)N[C@@H](CC(=O)NCCOCCOCC(=O)NCCCCCCCCCCC(=O)O)C(=O)O)CSCC(=O)N[C@@H](Cc2ccccc2)C(=O)N[C@@H](Cc2c[nH]c3ccccc23)C(=O)N[C@@H](CC(=O)O)C1=O [Example 2187] ({CH2CO}-FWD[NHexGly]Y[Nle]NR[NMeNle][Ahp(2)][Aze][Tle]SC[βAsp][AEEA][Aun]-OH; thioether N-14)	7.88
CCCCCCN1CC(=O)N[C@@H](Cc2ccc(O)cc2)C(=O)N[C@@H](CCCC)C(=O)N[C@@H](CC(N)=O)C(=O)N[C@@H](CCCNC(=N)N)C(=O)N(C)[C@@H](CCCC)C(=O)N[C@@H](CCCCC)C(=O)N2CC[C@H]2C(=O)N[C@@H](Cc2ccccc2)C(=O)N[C@@H](CO)C(=O)N[C@H](C(=O)N[C@@H](CC(=O)NCCOCCOCC(=O)NCCCCCCCCCCC(=O)O)C(=O)O)CSCC(=O)N[C@@H](Cc2ccccc2)C(=O)N[C@@H](Cc2c[nH]c3ccccc23)C(=O)N[C@@H](CC(=O)O)C1=O [Example 2188] ({CH2CO}-FWD[NHexGly]Y[Nle]NR[NMeNle][Ahp(2)][Aze]FSC[βAsp][AEEA][Aun]-OH; thioether N-14)	7.33
CCCCCCN1CC(=O)N[C@@H](Cc2ccc(O)cc2)C(=O)N[C@@H](CCCC)C(=O)N[C@@H](CC(N)=O)C(=O)N[C@@H](CCCNC(=N)N)C(=O)N(C)[C@@H](CCCC)C(=O)N[C@@H](CCCCC)C(=O)N2CCC[C@H]2C(=O)N[C@@H](C(C)(C)C)C(=O)N[C@@H](CO)C(=O)N[C@H](C(=O)N[C@@H](CC(=O)NCCOCCOCC(=O)NCCCCCCCCCCC(=O)O)C(=O)O)CSCC(=O)N[C@@H](Cc2ccccc2)C(=O)N[C@@H](Cc2cccc(C)c2)C(=O)N[C@@H](CC(=O)O)C1=O [Example 2189] ({CH2CO}-F[Phe(3-Me)]D[NHexGly]Y[Nle]NR[NMeNle][Ahp(2)]P[Tle]SC[βAsp][AEEA][Aun]-OH; thioether N-14)	7.54
CCCCCCN1CC(=O)N[C@@H](Cc2ccc(O)cc2)C(=O)N[C@@H](CCCC)C(=O)N[C@@H](CC(N)=O)C(=O)N[C@@H](CCCNC(=N)N)C(=O)N(C)[C@@H](CCCC)C(=O)N[C@@H](CCCCC)C(=O)N2CCC[C@H]2C(=O)N[C@@H](C(C)(C)C)C(=O)N[C@@H](CO)C(=O)N[C@H](C(=O)N[C@@H](CC(=O)NCCOCCOCC(=O)NCCCCCCCCCCC(=O)O)C(=O)O)CSCC(=O)N[C@@H](Cc2ccccc2)C(=O)N[C@@H](Cc2ccc(O)cc2)C(=O)N[C@@H](CC(=O)O)C1=O [Example 2190] ({CH2CO}-FYD[NHexGly]Y[Nle]NR[NMeNle][Ahp(2)]P[Tle]SC[βAsp][AEEA][Aun]-OH; thioether N-14)	7.61
CCCCCCN1CC(=O)N[C@@H](Cc2ccc(O)cc2)C(=O)N[C@@H](CCCC)C(=O)N[C@@H](CC(N)=O)C(=O)N[C@@H](CCCNC(=N)N)C(=O)N(C)[C@@H](CCCC)C(=O)N[C@@H](CCCCC)C(=O)N2CCC[C@H]2C(=O)N[C@@H](C(C)(C)C)C(=O)N[C@@H](CO)C(=O)N[C@H](C(=O)N[C@@H](CC(=O)NCCOCCOCC(=O)NCCCCCCCCCCC(=O)O)C(=O)O)CSCC(=O)N[C@@H](Cc2ccccc2)C(=O)N[C@@H](Cc2c[nH]c3ccccc23)C(=O)N[C@@H](CC(=O)O)C1=O [Example 2191] ({CH2CO}-FWD[NHexGly]Y[Nle]NR[NMeNle][Ahp(2)]P[Tle]SC[βAsp][AEEA][Aun]-OH; thioether N-14)	7.71
CCCCCCN1CC(=O)N[C@@H](Cc2ccc(O)cc2)C(=O)N[C@@H](CCCC)C(=O)N[C@@H](CC(N)=O)C(=O)N[C@@H](CCCNC(=N)N)C(=O)N(C)[C@@H](CCCC)C(=O)N[C@@H](CCCCC)C(=O)N2CCOC[C@H]2C(=O)N[C@@H](C(C)(C)C)C(=O)N[C@@H](CO)C(=O)N[C@H](C(=O)N[C@@H](CC(=O)NCCOCCOCC(=O)NCCCCCCCCCCC(=O)O)C(=O)O)CSCC(=O)N[C@@H](Cc2ccccc2)C(=O)N[C@@H](Cc2c[nH]c3ccccc23)C(=O)N[C@@H](CC(=O)O)C1=O [Example 2192] ({CH2CO}-FWD[NHexGly]Y[Nle]NR[NMeNle][Ahp(2)][Morpholine(3S-CO)][Tle]SC[βAsp][AEEA][Aun]-OH; thioether N-14)	7.73
